These results are taken from patent EP0881896B1, “SKIN TREATMENT WITH SALICYLIC ACID ESTERS AND RETINOIDS” (FD MANAGEMENT, INC., priority 1996, dated 1997).

The assay deals with sebocytes. Put plainly: In Vitro sebocyte Lipogenesis Assay (14-C acetate incorporation into lipid). Type of assay: cell-based, Human. The text has this: Dermatologic disorders, chronoaging and environmental abuse all have some relationship to sebum production. The present example reports an in vitro analysis of sebum suppression by use of a combination of salicylate ester and retinoid.
Human sebaceous glands were isolated from the nose of a person and cultured using submerged tissue culture techniques (Bajor et al, J. Invest, Dermatol, 102:1994. P. 564). These sebocytes accumulate intracellular lipid droplets characteristic of mature human sebum.
Harvested and passaged sebocytes were added to each well of a 48 well tissue culture plate and incubated at 37°C in the presence of 7.5% CO2 for 14 days. The growth medium was changed three times per week. On the day of experimentation, the growth medium was removed and the sebocytes washed three times with phosphate buffered saline (PBS). Fresh PBS in 0.5 ml amount was added to each well and 10 microliters of active agent speculated to inhibit lipogenesis. Triplicate wells were utilized for each sample. […] The cultures were incubated at 37°C/7.5% CO2 for 30 minutes. Radioactive label was prepared by adding 100 ul of 14-C labelled acetic acid (Amersham, sodium salt, specific activity of 56 mCi/mmol) to 10 mL of 50 mM sodium acetate buffer. Then 50 ul was added to each well containing the sebocytes and active agents. The cultures were returned to the incubator for 4 hours. Thereafter the treatments and label were removed and the sebocytes rinsed three times with fresh PBS. Sebocytes were harvested and 10 microliters removed and set aside for protein assessment. The remaining samples containing the 14-C label were extracted and the label counted using a Beckman scintillation counter. Triplicates were performed for each sample.
For each 48 well tissue culture plate, 16 samples could be analyzed. Of these, 1 sample was reserved for PBS, 1 sample for DMSO, and 1 sample for phenol red leaving 13 remaining samples. When TDS (tridecyl salicylate) was analyzed in the presence of other compounds, an additional set of wells was used for measuring the effects of TDS alone. When multiple 48 well plates were used, TDS was included in each plate.

Setting [1] is: combination with tridecyl salicylate, conclusion from Tables VIII-X.

Molecules are shown by their SMILES. Where two headings read alike, the source gives them in different places.

As for `CC1=C(/C=C/C(C)=C/C=C/C(C)=C/CO)C(C)(C)CCC1` [Retinol], the “activity with tridecyl salicylate (synergistic or additive)” value (“activity with tridecyl salicylate” below) (similar trials with retinol instead of retinyl linoleate, retinol at very low levels) was “synergistic”.
Regarding `CCCCCCCCCCCCCCCC(=O)OC/C=C(C)/C=C/C=C(C)/C=C/C1=C(C)CCCC1(C)C` [Retinyl Palmitate, retinyl palmitate, reference compound], the inhibition at 10 µM (Homo sapiens, Table X, Retinyl Palmitate 10 uM alone, read-out: Retinyl Palmitate % Actual Reduction (SD)) was 12.2%. Also, where the note is “Homo sapiens, Table X, Retinyl Palmitate 100 uM alone, read-out: Retinyl Palmitate % Actual Reduction (SD)”, the inhibition at 100 µM is 12%. Moreover, under setting [1], the “activity with tridecyl salicylate” value is “only an additive effect”.
Take `CCCCC/C=C\C/C=C\CCCCCCCC(=O)OC/C=C(C)/C=C/C=C(C)/C=C/C1=C(C)CCCC1(C)C` [Retinyl Linoleate, retinyl linoleate]: the inhibition at 10 µM (Homo sapiens, Table IX, Retinyl Linoleate 10 uM alone, read-out: Retinyl Linoleate % Actual Reduction (SD)) is -15% and the inhibition at 10 µM (Homo sapiens, Table VIII, Retinyl Linoleate 10 uM alone, read-out: Retinyl Linoleate % Actual Reduction (SD)) turned out to be 13.8%. The inhibition at 50 µM (Homo sapiens, Table IX, Retinyl Linoleate 50 uM alone, read-out: Retinyl Linoleate % Actual Reduction (SD)) is -7.4%. Also, the inhibition at 100 µM (Homo sapiens, Table IX, Retinyl Linoleate 100 uM alone, read-out: Retinyl Linoleate % Actual Reduction (SD)) came to 1.9% and the inhibition at 100 µM (Homo sapiens, Table VIII, Retinyl Linoleate 100 uM alone, read-out: Retinyl Linoleate % Actual Reduction (SD)) came out at 20.3%. In addition, the inhibition at 0.1 µM (Homo sapiens, Table VIII, Retinyl Linoleate 100 nM alone, read-out: Retinyl Linoleate % Actual Reduction (SD)) turned out to be 4.4%. Besides, the inhibition at 1 µM (Homo sapiens, Table VIII, Retinyl Linoleate 1 uM alone, read-out: Retinyl Linoleate % Actual Reduction (SD)) was 6%. Further, under setting [1], the “activity with tridecyl salicylate” value is on record as “synergistic activity”.
For the compound `CCCCCCCCCCCCCOC(=O)c1ccccc1O` [TDS, tridecyl salicylate], where the note is “Homo sapiens, Table IX, 50 uM TDS alone, read-out: Reduction”, the inhibition at 50 µM was 17.9%. Besides, the inhibition at 100 µM by setting is: (Homo sapiens, Table IX, 100 uM TDS alone, read-out: Reduction) 30.8%; (Homo sapiens, Table X, 100 uM TDS alone, read-out: Reduction) 38.7%. Moreover, the inhibition at 10 µM (Homo sapiens, Table VIII, 10 uM TDS alone, read-out: Reduction) is 19.7%.
